Measured values: the NIST ThermoML archive (doi:10.1016/j.fluid.2009.06.018)
Numbers after ± are expanded uncertainties.

Columns and labels:
[1] = 298.15 K; 101.33 kPa; Liquid; Vibrating tube method
[2] = refractive index (Na D-line) (dimensionless); details: 298.15 K; 101.33 kPa; Liquid; Standard Abbe refractometry
[3] = xn = mol fraction of the nth substance listed; details: 298.15 K, 101 kPa, Liquid, Vibrating tube method
[4] = excess molar enthalpy (molar enthalpy of mixing); xn = mol fraction of the nth substance listed; details: 298.15 K, 101 kPa, Liquid, Flow calorimetry

CC(Cl)CCl (centres undefined) [1,2-dichloropropane]
Details	mass density [kg/m3]	refractive index
[1]	1149.03 ± 0.36	–
[2]	–	1.43656 ± 0.0007

CCOCCOCCOCCO [2-(2-(2-ethoxyethoxy)ethoxy)ethanol]
Details	mass density [kg/m3]	refractive index
[1]	1016.19 ± 25	–
[2]	–	1.43623 ± 0.0021

CCOCCOCCOCCO [2-(2-(2-ethoxyethoxy)ethoxy)ethanol] + CC(Cl)CCl
Details	excess molar enthalpy [kcal/mol]	mass density [kg/m3]
[3], x2 = 0.0522	–	1020.53 ± 22
[3], x2 = 0.1019	–	1024.84 ± 20
[3], x2 = 0.1497	–	1029.19 ± 18
[3], x2 = 0.2027	–	1034.17 ± 16
[3], x2 = 0.2538	–	1039.19 ± 15
[3], x2 = 0.3014	–	1044.06 ± 13
[3], x2 = 0.3475	–	1048.98 ± 12
[3], x2 = 0.4037	–	1055.22 ± 10
[3], x2 = 0.4507	–	1060.69 ± 8.8
[3], x2 = 0.5006	–	1066.74 ± 7.5
[3], x2 = 0.553	–	1073.37 ± 6.3
[3], x2 = 0.6023	–	1079.92 ± 5.3
[3], x2 = 0.6499	–	1086.58 ± 4.3
[3], x2 = 0.7036	–	1094.48 ± 3.4
[3], x2 = 0.7524	–	1102.1 ± 2.7
[3], x2 = 0.8009	–	1110.06 ± 2
[3], x2 = 0.8494	–	1118.49 ± 1.5
[3], x2 = 0.8988	–	1127.79 ± 1
[3], x2 = 0.9495	–	1138.04 ± 0.64
[4], x2 = 0.067	-0.0506 ± 0.00117	–
[4], x2 = 0.101	-0.0657 ± 0.00139	–
[4], x2 = 0.164	-0.104 ± 0.00158	–
[4], x2 = 0.195	-0.121 ± 0.00146	–
[4], x2 = 0.253	-0.145 ± 0.00153	–
[4], x2 = 0.308	-0.1638 ± 0.00158	–
[4], x2 = 0.36	-0.1773 ± 0.00163	–
[4], x2 = 0.41	-0.1859 ± 0.00165	–
[4], x2 = 0.457	-0.1887 ± 0.00165	–
[4], x2 = 0.501	-0.1888 ± 0.00165	–
[4], x2 = 0.544	-0.1854 ± 0.00165	–
[4], x2 = 0.604	-0.174 ± 0.0016	–
[4], x2 = 0.66	-0.1571 ± 0.00155	–
[4], x2 = 0.695	-0.144 ± 0.00155	–
[4], x2 = 0.745	-0.122 ± 0.00151	–
[4], x2 = 0.807	-0.0893 ± 0.00143	–
[4], x2 = 0.85	-0.0656 ± 0.00136	–
[4], x2 = 0.904	-0.036 ± 0.0012	–
[4], x2 = 0.954	-0.0131 ± 0.00108	–

CCCOCCOCCO [2-(2-propoxyethoxy)ethanol]
Details	mass density [kg/m3]	refractive index
[1]	962.74 ± 0.8	–
[2]	–	1.42727 ± 0.00078

CCCOCCOCCO [2-(2-propoxyethoxy)ethanol] + CC(Cl)CCl
Details	excess molar enthalpy [kcal/mol]	mass density [kg/m3]
[3], x2 = 0.054	–	969.58 ± 0.76
[3], x2 = 0.105	–	976.29 ± 0.73
[3], x2 = 0.1473	–	982.03 ± 0.71
[3], x2 = 0.203	–	989.81 ± 0.67
[3], x2 = 0.2494	–	996.53 ± 0.65
[3], x2 = 0.3	–	1004.1 ± 0.62
[3], x2 = 0.3488	–	1011.66 ± 0.6
[3], x2 = 0.4014	–	1020.11 ± 0.57
[3], x2 = 0.4516	–	1028.46 ± 0.55
[3], x2 = 0.5005	–	1036.91 ± 0.53
[3], x2 = 0.5504	–	1045.89 ± 0.51
[3], x2 = 0.5995	–	1055.07 ± 0.49
[3], x2 = 0.6509	–	1065.09 ± 0.47
[3], x2 = 0.7009	–	1075.28 ± 0.45
[3], x2 = 0.752	–	1086.18 ± 0.44
[3], x2 = 0.8015	–	1097.29 ± 0.42
[3], x2 = 0.851	–	1109.05 ± 0.4
[3], x2 = 0.9018	–	1121.84 ± 0.39
[3], x2 = 0.9476	–	1134.08 ± 0.37
[4], x2 = 0.06	-0.0351 ± 0.00105	–
[4], x2 = 0.119	-0.0599 ± 0.00112	–
[4], x2 = 0.147	-0.0709 ± 0.00108	–
[4], x2 = 0.202	-0.0895 ± 0.0011	–
[4], x2 = 0.255	-0.103 ± 0.0011	–
[4], x2 = 0.306	-0.1117 ± 0.0011	–
[4], x2 = 0.355	-0.116 ± 0.0011	–
[4], x2 = 0.402	-0.1173 ± 0.0011	–
[4], x2 = 0.447	-0.1153 ± 0.0011	–
[4], x2 = 0.511	-0.107 ± 0.0011	–
[4], x2 = 0.552	-0.0989 ± 0.00108	–
[4], x2 = 0.592	-0.0897 ± 0.00108	–
[4], x2 = 0.648	-0.0737 ± 0.00103	–
[4], x2 = 0.702	-0.0561 ± 0.001	–
[4], x2 = 0.753	-0.0387 ± 0.000932	–
[4], x2 = 0.802	-0.0225 ± 0.000884	–
[4], x2 = 0.848	-0.00722 ± 0.000765	–
[4], x2 = 0.907	0.00621 ± 0.000621	–
[4], x2 = 0.948	0.00903 ± 0.00055	–

COCCOCCOCCO [2-[2-(2-methoxyethoxy)ethoxy]ethanol]
Details	mass density [kg/m3]	refractive index
[1]	1043.3 ± 2.1	–
[2]	–	1.43673 ± 0.0009
